Laboratory results published in patent US9783536B2, “Nitrogen-containing heterocyclic compound or salt thereof” (FUJIFILM Corporation, priority 2013, dated 2017).
Where a name gives a salt, the structure may show the parent alone. Read-outs that look alike come from different tables or passages of the source.

Key:
human PI3Kα protein = target: T1, human PI3Kα protein (Homo sapiens, UniProt P42336); experiment: PI3Kα enzyme assay (ADP-Glo); format: biochemical; details: read-out: PI3Kα enzyme inhibitory activity
T1 construct: purchased Carna Biosciences, Inc; host or cells: baculovirus expression system
Summary of the method: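 Biotinylated human PI3Kα (baculovirus-expressed, 4.5 nmol/L) pre-incubated 15 min with compound in Tris-HCl pH 7.5, MgCl2, BSA; reaction 60 min at 25° C with 50 μmol/L PIP2 and 100 μmol/L ATP final. ADP quantified by ADP-Glo luminescence; IC50 calculated.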

[1] = target: T2, GST fusion human ERK2 protein (Homo sapiens, UniProt P28482); experiment: ERK2 enzyme assay (1); format: biochemical; details: read-out: ERK2 enzyme inhibitory activity (1)
T2 construct: purchased Carna Biosciences, Inc; host or cells: E. coli expression system
Experimental: In an ERK2 enzyme assay, GLUTATHIONE S-TRANSFERASE (GST) FUSION HUMAN ERK2 PROTEIN (manufactured by Carna Biosciences, Inc.), which was produced by using an E. coli expression system, was used.
12 μL of a reaction liquid (2.5 nmol/L ERK2, 100 mmol/L Hepes, 10 mmol/L MgCl2, 1.5 mmol/L DTT, 0.003% Brij35, pH 7.5) including ERK2 protein and a test compound having a predetermined concentration was allowed to stand at room temperature for 15 minutes. Then, 3 μL of a mixture liquid of FL-PEPTIDE8 (5-FAM-IPTSPITTTYFFFKKK-COOH) (manufactured by Caliper Life Sciences), which is substrate peptide, and ATP (manufactured by Sigma-Aldrich Co. LLC.) was added thereto such that the final concentrations thereof became 4.25 μmol/L and 43.1 μmol/L, respectively, and an enzyme reaction was performed by allowing to stand at 25° C. for 120 minutes.
After the reaction, the enzyme reaction was stopped by adding 30 μL of a reaction stopper liquid (100 mmol/L HEPES, 11.2 mmol/L EDTA, 5.6% Brij35, pH 7.5) including a 0.5% COATING REAGENT 8 (trade name, manufactured by Perkin Elmer Inc.) thereto. Then, phosphorylated peptide and non-phosphorylated peptide were separated using LABCHIP EZ READER (trade name, manufactured by Caliper Life Sciences), and the porportion of the phosphorylated peptide was quantified.
The inhibitory activities of the compounds were evaluated using IC50 (50% inhibitory concentration). The IC50 was calculated using XLFIT (trade name, manufactured by ID Business Solutions).

[2] = 4.5 nmol/L PI3Kα, PIP2 50 μmol/L, ATP 100 μmol/L
[3] = 2.5 nmol/L ERK2, ATP 43.1 μmol/L

T1 sequence (P42336 whole entry): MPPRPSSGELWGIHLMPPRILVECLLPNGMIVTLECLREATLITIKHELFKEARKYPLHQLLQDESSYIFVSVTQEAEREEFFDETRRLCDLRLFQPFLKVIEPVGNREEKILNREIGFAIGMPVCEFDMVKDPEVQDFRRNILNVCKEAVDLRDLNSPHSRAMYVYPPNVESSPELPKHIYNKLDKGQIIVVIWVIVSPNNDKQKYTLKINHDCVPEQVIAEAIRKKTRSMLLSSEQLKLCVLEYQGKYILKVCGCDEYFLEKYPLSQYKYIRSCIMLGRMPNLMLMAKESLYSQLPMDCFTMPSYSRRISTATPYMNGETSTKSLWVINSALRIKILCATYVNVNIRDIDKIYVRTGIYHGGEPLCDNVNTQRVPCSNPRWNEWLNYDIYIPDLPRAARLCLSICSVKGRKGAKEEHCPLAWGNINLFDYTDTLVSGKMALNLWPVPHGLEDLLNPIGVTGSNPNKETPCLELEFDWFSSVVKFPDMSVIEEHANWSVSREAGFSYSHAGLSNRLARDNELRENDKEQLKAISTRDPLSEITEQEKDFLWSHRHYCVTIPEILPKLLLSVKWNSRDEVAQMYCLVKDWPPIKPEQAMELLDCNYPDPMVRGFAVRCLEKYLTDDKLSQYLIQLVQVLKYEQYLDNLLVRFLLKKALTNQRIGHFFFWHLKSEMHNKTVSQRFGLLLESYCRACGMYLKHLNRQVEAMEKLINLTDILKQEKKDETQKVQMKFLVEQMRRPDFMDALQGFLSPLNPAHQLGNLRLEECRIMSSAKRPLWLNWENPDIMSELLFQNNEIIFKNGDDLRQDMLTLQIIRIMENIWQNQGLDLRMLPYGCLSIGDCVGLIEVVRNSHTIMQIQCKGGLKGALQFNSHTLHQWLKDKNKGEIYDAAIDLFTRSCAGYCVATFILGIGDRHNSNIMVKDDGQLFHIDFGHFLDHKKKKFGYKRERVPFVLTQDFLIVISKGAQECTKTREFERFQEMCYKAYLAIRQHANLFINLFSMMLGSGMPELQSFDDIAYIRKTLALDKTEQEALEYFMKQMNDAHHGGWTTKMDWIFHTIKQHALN
T1 sequence (P27986 whole entry partner): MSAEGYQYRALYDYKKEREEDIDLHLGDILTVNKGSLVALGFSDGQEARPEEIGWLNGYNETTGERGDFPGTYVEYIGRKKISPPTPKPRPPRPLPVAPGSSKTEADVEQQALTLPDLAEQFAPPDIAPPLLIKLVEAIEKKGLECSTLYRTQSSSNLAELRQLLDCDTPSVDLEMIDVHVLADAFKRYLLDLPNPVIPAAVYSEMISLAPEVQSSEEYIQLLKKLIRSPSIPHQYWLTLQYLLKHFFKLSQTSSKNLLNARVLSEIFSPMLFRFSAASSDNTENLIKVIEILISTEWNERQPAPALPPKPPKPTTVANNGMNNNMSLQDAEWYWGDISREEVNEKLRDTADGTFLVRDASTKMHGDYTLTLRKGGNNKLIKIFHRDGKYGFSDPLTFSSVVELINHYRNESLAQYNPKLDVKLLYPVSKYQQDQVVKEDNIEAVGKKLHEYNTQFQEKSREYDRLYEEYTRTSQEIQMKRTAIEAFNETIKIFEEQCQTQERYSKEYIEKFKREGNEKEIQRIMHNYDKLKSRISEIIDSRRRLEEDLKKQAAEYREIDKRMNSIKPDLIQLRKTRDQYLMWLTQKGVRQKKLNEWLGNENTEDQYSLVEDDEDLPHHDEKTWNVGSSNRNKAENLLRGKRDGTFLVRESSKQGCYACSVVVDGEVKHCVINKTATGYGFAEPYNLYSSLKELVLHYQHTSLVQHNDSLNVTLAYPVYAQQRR
T2 sequence (P28482 whole entry, the tested form may be a part): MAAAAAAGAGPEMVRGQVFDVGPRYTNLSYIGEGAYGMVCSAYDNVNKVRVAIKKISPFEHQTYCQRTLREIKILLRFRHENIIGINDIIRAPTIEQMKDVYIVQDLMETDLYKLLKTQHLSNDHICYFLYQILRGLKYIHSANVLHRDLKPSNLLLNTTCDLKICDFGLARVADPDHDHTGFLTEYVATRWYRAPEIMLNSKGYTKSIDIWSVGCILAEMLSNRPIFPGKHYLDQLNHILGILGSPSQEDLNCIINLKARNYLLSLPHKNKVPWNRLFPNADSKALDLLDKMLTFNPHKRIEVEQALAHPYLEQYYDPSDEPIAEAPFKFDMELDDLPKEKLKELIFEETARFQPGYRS

Row | SMILES | IC50 (human PI3Kα protein; [2]) [nM] | IC50 [1, 3] [nM] | IC50 (human PI3Kα protein) [nM] | IC50 ([1]; ERK2 enzyme assay (1)) [nM]
1 | Cc1nnc(Nc2ccc3ncc(N(C)c4cnn(C)c4)cc3n2)s1 [Example 0185, N^7-methyl-N^2-(5-methyl-1,3,4-thiadiazol-2-yl)-N^7-(1-methyl-1H-pyrazol-4-yl)-1,5-naphthyridine-2,7-diamine] | < 1000 | < 1000 |  | 
2 | CC(C)c1cnnc(Nc2ccc3ncc(-c4cnn(Cc5ccccn5)c4)cc3n2)c1 [Example 0375, N-(5-isopropylpyridazin-3-yl)-7-(1-(pyridin-2-ylmethyl)-1H-pyrazol-4-yl)-1,5-naphthyridine-2-amine] |  |  | < 1000 | < 1000
3 | Cc1nn(CCCN2CCCC2)cc1-c1cnc2ccc(Nc3cc(C(C)C)cnn3)nc2c1 [Example 0156, N-(5-isopropylpyridazin-3-yl)-7-(3-methyl-1-(3-(pyrrolidin-1-yl)propyl)-1H-pyrazol-4-yl)-1,5-naphthyridine-2-amine] | < 1000 | < 1000 |  | 
4 | CC(C)c1cnnc(Nc2ccc3ncc(-c4cnn(-c5cccnc5)c4)cc3n2)c1 [Example 0398, N-(5-isopropylpyridazin-3-yl)-7-(1-(pyridin-3-yl)-1H-pyrazol-4-yl)-1,5-naphthyridine-2-amine] |  |  | < 1000 | < 1000
5 | COc1cccc(Nc2cnc3ccc(Nc4nnc(C5CCCC5)s4)nc3c2)c1 [Example 0220, N^2-(5-cyclopentyl-1,3,4-thiadiazol-2-yl)-N^7-(3-methoxyphenyl)-1,5-naphthyridine-2,7-diamine] |  |  | < 1000 | 1000 to 10000
6 | OCCCN1CCN(c2cnc3ccc(Nc4nnc(C5CCCC5)s4)nc3c2)CC1 [Example 0050] | 1000 to 10000 | < 1000 |  | 
7 | Cn1cc(-c2cnc3ccc(Nc4ccccn4)nc3c2)cn1 [Example 0036, 7-(1-methyl-1H-pyrazol-4-yl)-N-(pyridin-2-yl)-1,5-naphthyridine-2-amine] | 1000 to 10000 | 1000 to 10000 |  | 
8 | CCc1nn(C)cc1-c1cnc2ccc(Nc3nnc(C4CCCC4)s3)nc2c1 [Example 0110, 5-cyclopentyl-N-(7-(3-ethyl-1-methyl-1H-pyrazol-4-yl)-1,5-naphthyridin-2-yl)-1,3,4-thiadiazole-2-amine] | < 1000 | < 1000 |  | 
9 | CC(C)(C)c1cncc(Nc2cnc3ccc(Nc4nnc(C5CCCC5)s4)nc3c2)c1 [Example 0103] | < 1000 | < 1000 |  | 
10 | COCc1csc(Nc2ccc3ncc(-c4cnn(C)c4)cc3n2)n1 [Example 0141] | 1000 to 10000 | 1000 to 10000 |  | 
11 | CCOC(=O)C1CCCN(c2cnc3ccc(Nc4nnc(C5CCCC5)s4)nc3c2)C1 (centres unmarked) [Example 0056] | 10000 to 50000 | < 1000 |  | 
12 | c1ncc(OCCN2CCCC2)cc1Nc1cnc2ccc(Nc3nnc(C4CCCC4)s3)nc2c1 [Example 0083] | < 1000 | < 1000 |  | 
13 | Cc1cnnc(Nc2ccc3ncc(Nc4cncnc4)cc3n2)c1 [Example 0388, N^2-(5-methylpyridazin-3-yl)-N^7-(pyrimidin-5-yl)-1,5-naphthyridine-2,7-diamine] |  |  | 1000 to 10000 | < 1000
14 | COc1ccccc1Nc1ccnc2ccc(Nc3nnc(C(C)C)s3)nc12 [Example 0011] | < 1000 | 1000 to 10000 |  | 
15 | CC(C)c1cnc(Nc2ccc3ncc(-c4cnn(C)c4)cc3n2)s1 [Example 0123, 5-isopropyl-N-(7-(1-methyl-1H-pyrazol-4-yl)-1,5-naphthyridin-2-yl)thiazole-2-amine] | < 1000 | < 1000 |  | 
16 | CN(c1cnc2ccc(Nc3nnc(C4CCCC4)s3)nc2c1)C1CCOC1 (centres unmarked) [Example 0326, N^2-(5-cyclopentyl-1,3,4-thiadiazol-2-yl)-N^7-methyl-N^7-(tetrahydrofuran-3-yl)-1,5-naphthyridine-2,7-diamine] |  |  | < 1000 | < 1000
17 | Cc1cnnc(Nc2ccc3ncc(-c4cn(C)nc4CO[Si](C)(C)C(C)(C)C)cc3n2)c1 [Example 0396, 7-(3-(((tert-butyldimethylsilyl)oxy)methyl)-1-methyl-1H-pyrazol-4-yl)-N-(5-methylpyridazin-3-yl)-1,5-naphthyridine-2-amine] |  |  | 10000 to 50000 | < 1000
18 | c1cc(Nc2cnc3ccc(Nc4nnc(C5CCCC5)s4)nc3c2)no1 [Example 0315, N^2-(5-cyclopentyl-1,3,4-thiadiazol-2-yl)-N^7-(isoxazol-3-yl)-1,5-naphthyridine-2,7-diamine] |  |  | 1000 to 10000 | < 1000
19 | c1ccc(-c2cnnc(Nc3ccc4ncc(-c5cnn(CCCN6CCCC6)c5)cc4n3)c2)cc1 [Example 0297, N-(5-phenylpyridazin-3-yl)-7-(1-(3-(pyrrolidin-1-yl)propyl)-1H-pyrazol-4-yl)-1,5-naphthyridine-2-amine] |  |  | < 1000 | < 1000

Row | SMILES | IC50 (human PI3Kα protein; [2]) [nM] | IC50 [1, 3] [nM] | IC50 (human PI3Kα protein) [nM] | IC50 ([1]; ERK2 enzyme assay (1)) [nM]
20 | O[C@H]1CCN(c2cnc3ccc(Nc4nnc(C5CCCC5)s4)nc3c2)C1 [Example 0314] |  |  | 1000 to 10000 | < 1000
21 | c1nnc(Nc2ccc3ncc(-c4cnn(CCCN5CCNCC5)c4)cc3n2)s1 [Example 0305, N-(7-(1-(3-(piperazin-1-yl)propyl)-1H-pyrazol-4-yl)-1,5-naphthyridin-2-yl)-1,3,4-thiadiazole-2-amine hydrochloride] |  |  | < 1000 | < 1000
22 | O=S(=O)(Nc1ccccc1)c1nnc(Nc2ccc3ncc(-c4cnn(CCN5CCNCC5)c4)cc3n2)s1 [Example 0181, N-phenyl-5-((7-(1-(2-(piperazin-1-yl)ethyl)-1H-pyrazol-4-yl)-1,5-naphthyridin-2-yl)amino)-1,3,4-thiadiazole-2-sulfonamide hydrochloride] | < 1000 | < 1000 |  | 
23 | COC[C@@H]1CCCN1c1cnc2ccc(Nc3nnc(C4CCCC4)s3)nc2c1 [Example 0061] | 1000 to 10000 | < 1000 |  | 
24 | CN1CC=C(c2cnc3ccc(Nc4nnc(C5CCCC5)s4)nc3c2)CC1 [Example 0333, 5-cyclopentyl-N-(7-(1-methyl-1,2,3,6-tetrahydropyridin-4-yl)-1,5-naphthyridin-2-yl)-1,3,4-thiadiazole-2-amine] |  |  | 1000 to 10000 | < 1000
25 | CN1CCN(c2cncc(Nc3cnc4ccc(Nc5nnc(C6CCCC6)s5)nc4c3)c2)CC1 [Example 0102] | < 1000 | < 1000 |  | 
26 | Cc1cc(-c2cnc3ccc(Nc4cc(C(C)C)cnn4)nc3c2)ccn1 [Example 0229] |  |  | < 1000 | < 1000
27 | CN1CCN(c2cnc3ccc(Nc4nnc(C5CCCC5)s4)nc3c2)CCC1=O [Example 0064, 1-(6-((5-cyclopentyl-1,3,4-thiadiazol-2-yl)amino)-1,5-naphthyridin-3-yl)-4-methyl-1,4-diazepan-5-one hydrochloride] | 1000 to 10000 | < 1000 |  | 
28 | c1ccc(CNc2cnc3ccc(Nc4nnc(C5CCCC5)s4)nc3c2)nc1 [Example 0068] | 1000 to 10000 | < 1000 |  | 
29 | c1n[nH]cc1Nc1cnc2ccc(Nc3nnc(C4CCCC4)s3)nc2c1 [Example 0175, N^2-(5-cyclopentyl-1,3,4-thiadiazol-2-yl)-N^7-(1H-pyrazol-4-yl)-1,5-naphthyridine-2,7-diamine] | < 1000 | < 1000 |  | 
30 | CC(C)c1nnc(Nc2ccc3ncc(-c4cnn(C)c4)nc3n2)s1 [Example 0010, 5-isopropyl-N-(3-(1-methyl-1H-pyrazol-4-yl)pyrido[2,3-b]pyrazine-6-yl)-1,3,4-thiadiazole-2-amineformate] | 1000 to 10000 | < 1000 |  | 
31 | CCCc1nn(CCCN2CCCC2)cc1-c1cnc2ccc(Nc3cc(C(C)C)cnn3)nc2c1 [Example 0391, N-(5-isopropylpyridazin-3-yl)-7-(3-propyl-1-(3-(pyrrolidin-1-yl)propyl)-1H-pyrazol-4-yl)-1,5-naphthyridine-2-amine] |  |  | < 1000 | < 1000
32 | COc1ccc(-c2ccnc3ccc(Nc4nnc(C(C)C)s4)nc23)cc1 [Example 0272] |  |  | 1000 to 10000 | < 1000
33 | CC(C)c1nnc(Nc2ccc3nccc(Nc4ccccc4)c3n2)s1 [Example 0009] | 1000 to 10000 | 1000 to 10000 |  | 
34 | CC(C)c1cnnc(Nc2ccc3ncc(-c4ccccn4)cc3n2)c1 [Example 0369] |  |  | 1000 to 10000 | < 1000
35 | CC(C)OCc1nn(C)cc1-c1cnc2ccc(Nc3nnc(C(C)C)s3)nc2c1 [Example 0146] | < 1000 | < 1000 |  | 
36 | O=C(c1ccc(Nc2cnc3ccc(Nc4nnc(C5CCCC5)s4)nc3c2)cc1)N1CCOCC1 [Example 0104] | 1000 to 10000 | < 1000 |  | 
37 | CS(=O)(=O)N1CCC(Nc2cnc3ccc(Nc4nnc(C5CCCC5)s4)nc3c2)CC1 [Example 0098] | < 1000 | < 1000 |  | 
